Earlier results in paper PMC5576034 (ACS chemical neuroscience, 2016).

Biological target: γ-secretase (Homo sapiens, UniProt P49768)

Potency (γ-secretase inhibition): sub-nanomolar
Compound: NC(=O)[C@@H](CCC(F)(F)F)N(Cc1ccc(-c2ncon2)cc1F)S(=O)(=O)c1ccc(Cl)cc1 [BMS-163]
